# Data from patent US8192962B2, “Processes for detecting toxic substances” (Daikin Industries, Ltd., priority 2001, dated 2012).
# Test system: Metabolism protein genes
# Assay: DNA chip mRNA expression in yeast, metabolism protein genes (Table 7)
# Assay type: cell-based, Saccharomyces cerevisiae S288C
# Summary of the method: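 Whole-genome yeast DNA chip hybridization (65° C., >12 h) of Cy-labeled cDNA from S288C cells exposed 2 h at 25° C. to a sub-lethal toxicant dose in YPD; value is intensity relative to chemical-free control.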
structure (smiles),measurement,setting,value
"Oc1cc(Cl)c(Cl)cc1Cl [(6), 2,4,5-trichlorophenol]",The level of expressed mRNA in the presence of chemical substance/The level of expressed mRNA in the absence of chemical substance,yeast gene YAL012W,1.6
same,The level of expressed mRNA in the presence of chemical substance/The level of expressed mRNA in the absence of chemical substance,yeast gene YAL038W,1.3
same,The level of expressed mRNA in the presence of chemical substance/The level of expressed mRNA in the absence of chemical substance,yeast gene YBL001C,2.4
same,level of expressed mRNA in the presence/in the absence of chemical substance,yeast gene YBR003W,1.2
same,level of expressed mRNA in the presence/in the absence of chemical substance,yeast gene YBR011C,2.0
same,level of expressed mRNA in the presence/in the absence of chemical substance,yeast gene YBR020W,0.8
same,The level of expressed mRNA in the presence of chemical substance/The level of expressed mRNA in the absence of chemical substance,yeast gene YBR023C,0.5
same,The level of expressed mRNA in the presence of chemical substance/The level of expressed mRNA in the absence of chemical substance,yeast gene YBR029C,0.8
same,The level of expressed mRNA in the presence of chemical substance/The level of expressed mRNA in the absence of chemical substance,yeast gene YBR111C,3.0
same,The level of expressed mRNA in the presence of chemical substance/The level of expressed mRNA in the absence of chemical substance,yeast gene YBR183W,2.5
same,The level of expressed mRNA in the presence of chemical substance/The level of expressed mRNA in the absence of chemical substance,yeast gene YBR222C,1.3
same,The level of expressed mRNA in the presence of chemical substance/The level of expressed mRNA in the absence of chemical substance,yeast gene YBR256C,2.0
same,The level of expressed mRNA in the presence of chemical substance/The level of expressed mRNA in the absence of chemical substance,yeast gene YCL009C,1.8
same,The level of expressed mRNA in the presence of chemical substance/The level of expressed mRNA in the absence of chemical substance,yeast gene YCL064C,3.3
same,level of expressed mRNA in the presence/in the absence of chemical substance,yeast gene YCR010C,1.3
same,level of expressed mRNA in the presence/in the absence of chemical substance,yeast gene YCR034W,0.3
same,The level of expressed mRNA in the presence of chemical substance/The level of expressed mRNA in the absence of chemical substance,yeast gene YCR048W,0.2
same,The level of expressed mRNA in the presence of chemical substance/The level of expressed mRNA in the absence of chemical substance,yeast gene YCR098C,1.6
same,The level of expressed mRNA in the presence of chemical substance/The level of expressed mRNA in the absence of chemical substance,yeast gene YDR009W,2.4
same,The level of expressed mRNA in the presence of chemical substance/The level of expressed mRNA in the absence of chemical substance,yeast gene YDR019C,4.8
same,level of expressed mRNA in the presence/in the absence of chemical substance,yeast gene YDR050C,1.7
same,level of expressed mRNA in the presence/in the absence of chemical substance,yeast gene YDR073W,1.3
same,level of expressed mRNA in the presence/in the absence of chemical substance,yeast gene YDR123C,0.7
same,level of expressed mRNA in the presence/in the absence of chemical substance,yeast gene YDR178W,2.1
same,level of expressed mRNA in the presence/in the absence of chemical substance,yeast gene YDR277C,1.1
same,level of expressed mRNA in the presence/in the absence of chemical substance,yeast gene YDR284C,1.8
same,level of expressed mRNA in the presence/in the absence of chemical substance,yeast gene YDR345C,1.2
same,The level of expressed mRNA in the presence of chemical substance/The level of expressed mRNA in the absence of chemical substance,yeast gene YDR380W,0.4
same,level of expressed mRNA in the presence/in the absence of chemical substance,yeast gene YDR400W,1.1
same,level of expressed mRNA in the presence/in the absence of chemical substance,yeast gene YDR408C,0.9
same,level of expressed mRNA in the presence/in the absence of chemical substance,yeast gene YDR483W,1.5
same,The level of expressed mRNA in the presence of chemical substance/The level of expressed mRNA in the absence of chemical substance,yeast gene YDR497C,0.6
same,The level of expressed mRNA in the presence of chemical substance/The level of expressed mRNA in the absence of chemical substance,yeast gene YDR502C,1.5
same,The level of expressed mRNA in the presence of chemical substance/The level of expressed mRNA in the absence of chemical substance,yeast gene YDR516C,1.8
same,level of expressed mRNA in the presence/in the absence of chemical substance,yeast gene YEL063C,1.3
same,The level of expressed mRNA in the presence of chemical substance/The level of expressed mRNA in the absence of chemical substance,yeast gene YER014W,4.0
same,level of expressed mRNA in the presence/in the absence of chemical substance,yeast gene YER015W,0.9
same,The level of expressed mRNA in the presence of chemical substance/The level of expressed mRNA in the absence of chemical substance,yeast gene YER026C,2.5
same,The level of expressed mRNA in the presence of chemical substance/The level of expressed mRNA in the absence of chemical substance,yeast gene YER053C,2.8
same,The level of expressed mRNA in the presence of chemical substance/The level of expressed mRNA in the absence of chemical substance,yeast gene YER069W,1.3
same,level of expressed mRNA in the presence/in the absence of chemical substance,yeast gene YER081W,1.1
same,The level of expressed mRNA in the presence of chemical substance/The level of expressed mRNA in the absence of chemical substance,yeast gene YER096W,1.2
same,level of expressed mRNA in the presence/in the absence of chemical substance,yeast gene YER120W,1.5
same,The level of expressed mRNA in the presence of chemical substance/The level of expressed mRNA in the absence of chemical substance,yeast gene YER178W,2.5
same,level of expressed mRNA in the presence/in the absence of chemical substance,yeast gene YFL011W,1.0
same,The level of expressed mRNA in the presence of chemical substance/The level of expressed mRNA in the absence of chemical substance,yeast gene YFL014W,9.3
same,The level of expressed mRNA in the presence of chemical substance/The level of expressed mRNA in the absence of chemical substance,yeast gene YFL030W,1.3
same,The level of expressed mRNA in the presence of chemical substance/The level of expressed mRNA in the absence of chemical substance,yeast gene YFL031W,0.3
same,The level of expressed mRNA in the presence of chemical substance/The level of expressed mRNA in the absence of chemical substance,yeast gene YFL056C,0.6
same,The level of expressed mRNA in the presence of chemical substance/The level of expressed mRNA in the absence of chemical substance,yeast gene YFL057C,1.2
same,The level of expressed mRNA in the presence of chemical substance/The level of expressed mRNA in the absence of chemical substance,yeast gene YFR047C,2.0
same,level of expressed mRNA in the presence/in the absence of chemical substance,yeast gene YGL012W,1.6
same,The level of expressed mRNA in the presence of chemical substance/The level of expressed mRNA in the absence of chemical substance,yeast gene YGL022W,0.9
same,level of expressed mRNA in the presence/in the absence of chemical substance,yeast gene YGL115W,1.2
same,The level of expressed mRNA in the presence of chemical substance/The level of expressed mRNA in the absence of chemical substance,yeast gene YGL126W,1.6
same,level of expressed mRNA in the presence/in the absence of chemical substance,yeast gene YGL205W,1.6
same,The level of expressed mRNA in the presence of chemical substance/The level of expressed mRNA in the absence of chemical substance,yeast gene YGL209W,1.0
same,The level of expressed mRNA in the presence of chemical substance/The level of expressed mRNA in the absence of chemical substance,yeast gene YGL248W,2.7
same,The level of expressed mRNA in the presence of chemical substance/The level of expressed mRNA in the absence of chemical substance,yeast gene YGL253W,2.4
same,The level of expressed mRNA in the presence of chemical substance/The level of expressed mRNA in the absence of chemical substance,yeast gene YGR037C,1.1
same,The level of expressed mRNA in the presence of chemical substance/The level of expressed mRNA in the absence of chemical substance,yeast gene YGR055W,1.1
same,level of expressed mRNA in the presence/in the absence of chemical substance,yeast gene YGR096W,1.7
same,level of expressed mRNA in the presence/in the absence of chemical substance,yeast gene YGR191W,1.1
same,The level of expressed mRNA in the presence of chemical substance/The level of expressed mRNA in the absence of chemical substance,yeast gene YGR194C,1.9
same,level of expressed mRNA in the presence/in the absence of chemical substance,yeast gene YGR204W,0.6
same,The level of expressed mRNA in the presence of chemical substance/The level of expressed mRNA in the absence of chemical substance,yeast gene YGR244C,2.6
same,The level of expressed mRNA in the presence of chemical substance/The level of expressed mRNA in the absence of chemical substance,yeast gene YGR256W,6.2
same,The level of expressed mRNA in the presence of chemical substance/The level of expressed mRNA in the absence of chemical substance,yeast gene YGR282C,2.2
same,level of expressed mRNA in the presence/in the absence of chemical substance,yeast gene YHR025W,0.8
same,The level of expressed mRNA in the presence of chemical substance/The level of expressed mRNA in the absence of chemical substance,yeast gene YHR111W,1.3
same,level of expressed mRNA in the presence/in the absence of chemical substance,yeast gene YHR123W,1.0
same,The level of expressed mRNA in the presence of chemical substance/The level of expressed mRNA in the absence of chemical substance,yeast gene YHR137W,0.7
same,The level of expressed mRNA in the presence of chemical substance/The level of expressed mRNA in the absence of chemical substance,yeast gene YHR174W,1.5
same,The level of expressed mRNA in the presence of chemical substance/The level of expressed mRNA in the absence of chemical substance,yeast gene YHR176W,2.3
same,level of expressed mRNA in the presence/in the absence of chemical substance,yeast gene YHR210C,0.7
same,level of expressed mRNA in the presence/in the absence of chemical substance,yeast gene YIL006W,0.3
same,The level of expressed mRNA in the presence of chemical substance/The level of expressed mRNA in the absence of chemical substance,yeast gene YIL045W,1.7
same,The level of expressed mRNA in the presence of chemical substance/The level of expressed mRNA in the absence of chemical substance,yeast gene YIL107C,1.0
same,The level of expressed mRNA in the presence of chemical substance/The level of expressed mRNA in the absence of chemical substance,yeast gene YIL154C,1.1
same,The level of expressed mRNA in the presence of chemical substance/The level of expressed mRNA in the absence of chemical substance,yeast gene YIL155C,1.4
same,The level of expressed mRNA in the presence of chemical substance/The level of expressed mRNA in the absence of chemical substance,yeast gene YIL167W,7.7
same,The level of expressed mRNA in the presence of chemical substance/The level of expressed mRNA in the absence of chemical substance,yeast gene YIR034C,1.3
same,The level of expressed mRNA in the presence of chemical substance/The level of expressed mRNA in the absence of chemical substance,yeast gene YIR036C,0.7
same,The level of expressed mRNA in the presence of chemical substance/The level of expressed mRNA in the absence of chemical substance,yeast gene YJL031C,1.6
same,The level of expressed mRNA in the presence of chemical substance/The level of expressed mRNA in the absence of chemical substance,yeast gene YJL068C,1.1
same,The level of expressed mRNA in the presence of chemical substance/The level of expressed mRNA in the absence of chemical substance,yeast gene YJL088W,2.8
same,The level of expressed mRNA in the presence of chemical substance/The level of expressed mRNA in the absence of chemical substance,yeast gene YJL099W,2.0
same,level of expressed mRNA in the presence/in the absence of chemical substance,yeast gene YJL121C,1.1
same,level of expressed mRNA in the presence/in the absence of chemical substance,yeast gene YJL167W,1.3
same,The level of expressed mRNA in the presence of chemical substance/The level of expressed mRNA in the absence of chemical substance,yeast gene YJL172W,3.8
same,The level of expressed mRNA in the presence of chemical substance/The level of expressed mRNA in the absence of chemical substance,yeast gene YJL219W,1.5
same,The level of expressed mRNA in the presence of chemical substance/The level of expressed mRNA in the absence of chemical substance,yeast gene YJL221C,6.6
same,level of expressed mRNA in the presence/in the absence of chemical substance,yeast gene YJR077C,0.9
same,The level of expressed mRNA in the presence of chemical substance/The level of expressed mRNA in the absence of chemical substance,yeast gene YJR137C,1.5
same,level of expressed mRNA in the presence/in the absence of chemical substance,yeast gene YJR143C,0.6
same,The level of expressed mRNA in the presence of chemical substance/The level of expressed mRNA in the absence of chemical substance,yeast gene YJR148W,2.0
same,The level of expressed mRNA in the presence of chemical substance/The level of expressed mRNA in the absence of chemical substance,yeast gene YJR155W,1.4
